Results on one molecule are retold here after US20160045487A1, “COMPOSITIONS AND METHODS FOR TREATING NEUROPATHY” (CHILDEREN'S MEDICAL CENTER CORPORATION, priority 2013, published 2016).

In the experiment the test system is GFRα/RET receptor signaling. The experiment in a line: Tyrosine hydroxylase promoter luciferase reporter assay in SH-SY5Y-THpGL3 cells. Conditions: for effect in the TH-luciferase assay: XIB4035 alone. In kind it is cell-based, human. The source says: One goal of these studies was to determine if XIB4035 could be used for treating SFN in humans. Using the Neuro2A (N2A) murine neuroblastoma cell line, Tokugawa et al. (supra) reported XIB4035 as a competitive agonist for the GDNF receptor GFRα1 that activates the RET receptor. Since populations of DRG sensory neurons express different GFRα receptors, thus making them preferentially responsive to the particular ligands, it was important to determine if XIB4035 was specific to GFRα1 or could act on other family members. Since PSPN has no effect on peripheral sensory neurons, the GFRα1, GFRα2, and GFRα3 receptors were the focus of these studies. The SH-SY5Y, a human neuroblastoma cell line expressing mRNA for GFRα1, GFRα2, and GFRα3, was used to perform two cell-based assays; immunoblots measuring RET phosphorylation and a luciferase reporter assay using the tyrosine hydroxylase (TH) promoter. For the latter two paradigms were used, either overnight treatment immediately followed by luciferase activity measurements or 10 minute treatments followed by washout and overnight incubation prior to measurements. GDNF and ARTN induced robust TH-luciferase activity in a dose dependent manner (FIG. 3E). Because the responses to GDNF and ARTN were more robust, these two factors were chosen for further analysis.
The tyrosine hydroxylase promoter was cloned into the pGL3 basic vector (Promega, Madison, Wis., USA) at the Mlu I and Hind III sites, as previously described (Zwick, supra) (TH-pGL3). Briefly, a 2 Kb promoter region upstream from the transcription initiation site of the rat TH gene was cloned from genomic DNA using the primer sequences, […] and […]. SH-SY5Y cells were co-transfected with the TH-pGL3 and the pBabe-puromycin expression vectors at a molar ratio of 10:1. Cells were selected for stable puromycin resistance at a final concentration of 0.5 μg/ml of puromycin-dihydrochloride. Stable colonies were selected and tested for TH-directed luciferase response to GDNF family ligand stimulation. One stable clone, SH-SY5Y-THpGL3, with good signal-to-noise ratio was selected for use in the experiments.
SH-SY5Y-THpGL3 cells were maintained in DMEM/F12, 5% FBS, and 1% penicillin/streptomycin and plated on collagen coated plates (4 μg/ml). Neuro-2A cells were grown in MEM, 5% FBS, and 1% penicillin/streptomycin. BE(2)-C cells were grown in DMEM/F12 media containing 5% FBS and 1% penicillin/streptomycin. PC-12 cells were maintained in media containing RPMI-1640, 10% horse serum, 5% FBS, and 1% penicillin/streptomycin on collagen coated plates. For luciferase assays, cells were treated for either 10 minutes with washout or overnight with various molecules and assayed for firefly luciferase 16-24 hours post-treatment using the luciferase assay system (Promega, Madison, Wis., USA).
On the technique in general: Reporter assays use an easily measured gene product as a stand-in for the process of interest.

Regarding `CCN(CC)CCCC(C)Nc1cc(/C=C/c2ccccc2Cl)nc2cc(Cl)ccc12` (stereo not shown) [XIB4035, N4-{7-chloro-2-[(E)-2-(2-chloro-phenyl)-vinyl]-quinolin-4-yl}-N1,N1-diethyl-pentane-1,4-diamine], the “maximal effect, luciferase activity” value reads like this: (18 nM ARTN + 20 μM XIB4035) 3.61±0.47 fold over control; (18 nM GDNF + 20 μM XIB4035) 3.41±0.41 fold over control. In addition, the “minimal ARTN dose necessary to induce luciferase activity above control” value (ARTN + 20 μM XIB4035, 10 minutes, washout, overnight) stood at 2.7 pM. The “minimal GDNF dose necessary to induce luciferase activity above control” value (GDNF + 20 μM XIB4035, 10 minutes, washout, overnight) was found to be 2.7 pM. The “effect in the TH-luciferase assay” value (10 minute treatment, 1-15 μM, washout, overnight incubation) is “no effect” and the “effect in the TH-luciferase assay” value (overnight treatment, 6.25-500 nM) was “no effect”. For the same molecule, the “effect on ligand-induced TH-luciferase activity” value (co-treatment with either GDNF or ARTN over a range of doses) is listed as “significantly potentiates”.
